# Experimental data published in patent publication US10189835B2, “Derivatives and methods of treating hepatitis B infections” (Novira Therapeutics, Inc., priority 2014, dated 2019).
# System: HBV replication in HepG2.2.15 cells
# Test: HBV replication inhibition assay (BDNA assay)
# Format: cell-based
# Details: 6 days of treatment, encapsidated HBV DNA in supernatant by branched DNA QuantiGene assay, listed as 828 E1
# From the text: HBV replication inhibition by the compounds of this invention could be determined in cells infected or transfected with HBV, or cells with stably integrated HBV, such as HepG2.2.15 cells (Sells et al. 1987). In this example, HepG2.2.15 cells were maintained in cell culture medium containing 10% fetal bovine serum (FBS), Geneticin, L-glutamine, penicillin and streptomycin. HepG2.2.15 cells could be seeded in 96-well plates at a density of 40,000 cells/well and be treated with serially diluted compounds at a final DMSO concentration of 0.5% either alone or in combination by adding drugs in a checker box format. Cells were incubated with compounds for three days, after which medium was removed and fresh medium containing compounds was added to cells and incubated for another three days. At day 6, supernatant was removed and treated with DNase at 37° C. for 60 minutes, followed by enzyme inactivation at 75° C. for 15 minutes. Encapsidated HBV DNA was released from the virions and covalently linked HBV polymerase by incubating in lysis buffer (Affymetrix QS0010) containing […] proteinase K at 50° C. for 40 minutes. HBV DNA was denatured by addition of 0.2 M NaOH and detected using a branched DNA (BDNA) QuantiGene assay kit according to manufacturer recommendation (Affymetrix). HBV DNA levels could also be quantified using qPCR, based on amplification of encapsidated HBV DNA extraction with QuickExtraction Solution (Epicentre Biotechnologies) and amplification of HBV DNA using HBV specific PCR probes that can hybridize to HBV DNA and a fluorescently labeled probe for quantitation. In addition, cell viability of HepG2.2.15 cells incubated with test compounds alone or in combination was determined by using CellTitre-Glo reagent according to the manufacturer protocol (Promega). The mean background signal from wells containing only culture medium was subtracted from all other samples, and percent inhibition at each compound concentration was calculated by normalizing to signals from HepG2.2.15 cells treated with 0.5% DMSO using equation E1. % inhibition=(DMSOave−Xi)/DMSOave×100% E1: […]
# where DMSOave is the mean signal calculated from the wells that were treated with DMSO control (0% inhibition control) and Xi is the signal measured from the individual wells. EC50 values, effective concentrations that achieved 50% inhibitory effect, were determined by non-linear fitting using Graphpad Prism software (San Diego, Calif.) and equation E2 Y=Ymin+(Ymax−Ymin)/(1+10(LogEC50-X)×HillSlope) E2: […]
# where Y represents percent inhibition values and X represents the logarithm of compound concentrations.
# Selected compounds of the invention were assayed in the HBV replication assay (BDNA assay), as described above and a representative group of these active compounds is shown in Table 3. […] In Table 3, “A” represents 0.01<EC50<0.10; “B” represents 0.10<EC50<0.50; and “C” represents 0.50<EC50<1.0.
row,SMILES,EC50 [nM]
1,"CON(C)C(=O)c1n[nH]c2c1CN(C(=O)Nc1cccc(Cl)c1)C(C)C2 (stereo not shown) [Compound 828 E1, N5-(3-chlorophenyl)-N3-methoxy-N3,6-dimethyl-1,4,6,7-tetrahydropyrazolo [4,3-c]pyridine-3,5-dicarboxamide]",10 to 100

# Same assay, conditions: 6 days of treatment, encapsidated HBV DNA in supernatant by branched DNA QuantiGene assay, listed as 828 E2
row,SMILES,EC50 [nM]
1,"CON(C)C(=O)c1n[nH]c2c1CN(C(=O)Nc1cccc(Cl)c1)C(C)C2 (stereo not shown) [Compound 828 E2, N5-(3-chlorophenyl)-N3-methoxy-N3,6-dimethyl-1,4,6,7-tetrahydropyrazolo [4,3-c]pyridine-3,5-dicarboxamide]",100 to 500

# Same assay, conditions: Hepatitis B virus, HepG2.2.15, 144 h, 6 days of treatment, encapsidated HBV DNA in supernatant by branched DNA QuantiGene assay
row,SMILES,EC50 [nM]
1,"CON(C)C(=O)c1n[nH]c2c1CN(C(=O)Nc1cccc(Cl)c1)CC2 [Compound 434, N5-(3-chlorophenyl)-N3-methoxy-N3-methyl-1,4,6,7-tetrahydropyrazolo [4,3-c]pyridine-3,5-dicarboxamide]",10 to 100
2,CCCC(=O)c1n[nH]c2c1CN(C(=O)Nc1cccc(Cl)c1)CC2 [Compound 561],10 to 100
3,"CN(O)C(=O)c1n[nH]c2c1CN(C(=O)Nc1cccc(Cl)c1)CC2 [Compound 587, N5-(3-chlorophenyl)-N3-hydroxy-N3-methyl-6,7-dihydro-1H-pyrazolo[4,3-c]pyridine-3,5(4H)-dicarboxamide]",500 to 1000
4,"CCN(OC)C(=O)c1n[nH]c2c1CN(C(=O)Nc1cccc(Cl)c1)CC2 [Compound 594, N5-(3-chlorophenyl)-N3-ethyl-N3-methoxy-1,4,6,7-tetrahydropyrazolo [4,3-c]pyridine-3,5-dicarboxamide]",10 to 100
5,"CON(C(=O)c1n[nH]c2c1CN(C(=O)Nc1cccc(Cl)c1)CC2)C(C)C [Compound 595, N5-(3-chlorophenyl)-N3-isopropyl-N3-methoxy-1,4,6,7-tetrahydropyrazolo [4,3-c]pyridine-3,5-dicarboxamide]",100 to 500
6,CCON(C)C(=O)c1n[nH]c2c1CN(C(=O)Nc1cccc(Cl)c1)CC2 [Compound 599],10 to 100
7,"CC(C)ON(C)C(=O)c1n[nH]c2c1CN(C(=O)Nc1cccc(Cl)c1)CC2 [Compound 600, N5-(3-chlorophenyl)-N3-isopropoxy-N3-methyl-1,4,6,7-tetrahydropyrazolo[4,3-c]pyridine-3,5-dicarboxamide]",10 to 100
8,"CCC(=O)c1n[nH]c2c1CN(C(=O)Nc1cccc(Cl)c1)CC2 [Compound 695, N-(3-chlorophenyl)-3-propanoyl-1,4,6,7-tetrahydropyrazolo [4,3-c]pyridine-5-carboxamide]",100 to 500
9,"O=C(Nc1cccc(Cl)c1)N1CCc2[nH]nc(C(=O)N3CC(O)CO3)c2C1 (stereo not shown) [Compound 697, N-(3-chlorophenyl)-3-(4-hydroxyisoxazolidine-2-carbonyl)-1,4,6,7-tetrahydropyrazolo [4,3-c]pyridine-5-carboxamide]",500 to 1000
10,"O=C(Nc1cccc(Cl)c1)N1CCc2[nH]nc(C(=O)N3CC(F)CO3)c2C1 (stereo not shown) [Compound 698, N-(3-chlorophenyl)-3-(4-fluoroisoxazolidine-2-carbonyl)-1,4,6,7-tetrahydropyrazolo[4,3-c]pyridine-5-carboxamide]",10 to 100
11,"O=C(Nc1cccc(Cl)c1)N1CCc2[nH]nc(C(=O)N3CCCO3)c2C1 [Compound 699, N-(3-chlorophenyl)-3-(isoxazolidine-2-carbonyl)-1,4,6,7-tetrahydropyrazolo[4,3-c]pyridine-5-carboxamide]",100 to 500
12,CCCON(C)C(=O)c1n[nH]c2c1CN(C(=O)Nc1cccc(Cl)c1)CC2 [Compound 795],100 to 500
13,CN(OCCO)C(=O)c1n[nH]c2c1CN(C(=O)Nc1cccc(Cl)c1)CC2 [Compound 796],100 to 500
14,CC(C)CON(C)C(=O)c1n[nH]c2c1CN(C(=O)Nc1cccc(Cl)c1)CC2 [Compound 798],100 to 500
15,COCCON(C)C(=O)c1n[nH]c2c1CN(C(=O)Nc1cccc(Cl)c1)CC2 [Compound 800],100 to 500
16,CN(OCC1CC1)C(=O)c1n[nH]c2c1CN(C(=O)Nc1cccc(Cl)c1)CC2 [Compound 803],100 to 500
17,CN(OC1CCC1)C(=O)c1n[nH]c2c1CN(C(=O)Nc1cccc(Cl)c1)CC2 [Compound 805],10 to 100
18,"CN(OC1CCOC1)C(=O)c1n[nH]c2c1CN(C(=O)Nc1cccc(Cl)c1)CC2 (stereo not shown) [Compound 910, N5-(3-chlorophenyl)-N3-methyl-N3-tetrahydrofuran-3-yloxy-1,4,6,7-tetrahydropyrazolo[4,3-c]pyridine-3,5-dicarboxamide]",100 to 500
19,"CN1CC(ON(C)C(=O)c2n[nH]c3c2CN(C(=O)Nc2cccc(Cl)c2)CC3)C1 [Compound 912, N5-(3-chlorophenyl)-N3-methyl-N3-(1-methylazetidin-3-yl)oxy-1,4,6,7-tetrahydropyrazolo[4,3-c]pyridine-3,5-dicarboxamide]",100 to 500
20,CN(C)N(C)C(=O)c1n[nH]c2c1CN(C(=O)Nc1cccc(Cl)c1)CC2 [Compound 937],10 to 100
